Test results as given in PubChem BioAssay (NCI).
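Cells were grown in 96-well plates and exposed to each compound for 48 hours at five concentrations; endpoints were interpolated linearly between bracketing concentrations, or set to the highest concentration if not reached. GI50 marks 50% less growth. TGI: total growth inhibition.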

Key:
Assay in all cases: growth of human tumour cells (NCI), 48 h
RPMI-8226 leukemia = system: RPMI-8226 leukemia
OVCAR-4 ovarian = system: OVCAR-4 ovarian
SK-OV-3 ovarian = system: SK-OV-3 ovarian
CAKI-1 renal = system: CAKI-1 renal
BT-549 breast = system: BT-549 breast
SK-MEL-5 melanoma = system: SK-MEL-5 melanoma
SK-MEL-28 melanoma = system: SK-MEL-28 melanoma
PC-3 prostate = system: PC-3 prostate
COLO 205 colon = system: COLO 205 colon
NCI-H522 lung = system: NCI-H522 lung
MALME-3M melanoma = system: MALME-3M melanoma
SN12C renal = system: SN12C renal
OVCAR-3 ovarian = system: OVCAR-3 ovarian
OVCAR-5 ovarian = system: OVCAR-5 ovarian
UO-31 renal = system: UO-31 renal
DU-145 prostate = system: DU-145 prostate
SNB-19 CNS = system: SNB-19 CNS
UACC-62 melanoma = system: UACC-62 melanoma
HCT-15 colon = system: HCT-15 colon
SF-295 CNS = system: SF-295 CNS
A549 NSCLC = system: A549 NSCLC
CCRF-CEM leukemia = system: CCRF-CEM leukemia
OVCAR-8 ovarian = system: OVCAR-8 ovarian
LOX IMVI melanoma = system: LOX IMVI melanoma
K-562 leukemia = system: K-562 leukemia
TK-10 renal = system: TK-10 renal
SK-MEL-2 melanoma = system: SK-MEL-2 melanoma
A498 renal = system: A498 renal
HT29 colon = system: HT29 colon
MOLT-4 leukemia = system: MOLT-4 leukemia
NCI/ADR-RES ovarian = system: NCI/ADR-RES ovarian
SW-620 colon = system: SW-620 colon
NCI-H226 lung = system: NCI-H226 lung
HCT-116 colon = system: HCT-116 colon
SR leukemia = system: SR leukemia
MCF7 breast = system: MCF7 breast
MDA-MB-435 = system: MDA-MB-435
SF-539 CNS = system: SF-539 CNS
EKVX NSCLC = system: EKVX NSCLC
RXF 393 renal = system: RXF 393 renal
HL-60(TB) leukemia = system: HL-60(TB) leukemia
HCC-2998 colon = system: HCC-2998 colon
M14 melanoma = system: M14 melanoma
KM12 colon = system: KM12 colon
SNB-75 CNS = system: SNB-75 CNS
SF-268 CNS = system: SF-268 CNS
786-0 renal = system: 786-0 renal
MDA-MB-231 breast = system: MDA-MB-231 breast
ACHN renal = system: ACHN renal
HOP-62 NSCLC = system: HOP-62 NSCLC
HS 578T breast = system: HS 578T breast
T-47D breast = system: T-47D breast
IGROV1 ovarian = system: IGROV1 ovarian
U251 CNS = system: U251 CNS
NCI-H460 lung = system: NCI-H460 lung
NCI-H23 lung = system: NCI-H23 lung

With `Oc1ccc(CN(Cc2ccc(C(F)(F)F)cc2)Cc2ccc(O)c3ncccc23)c2cccnc12` the GI50 (RPMI-8226 leukemia) was 27.8 nM, the TGI (RPMI-8226 leukemia) was over 100000 nM and the GI50 (OVCAR-4 ovarian) was 42.9 nM. The TGI (OVCAR-4 ovarian) was over 100000 nM, the GI50 (SK-OV-3 ovarian) was 65.5 nM and the TGI (SK-OV-3 ovarian) was over 48300 nM. The GI50 (CAKI-1 renal) was 42.8 nM, the GI50 (BT-549 breast) was 29.7 nM and the TGI (BT-549 breast) was over 100000 nM. It also gave a GI50 (SK-MEL-5 melanoma) of 27.8 nM, a TGI (SK-MEL-5 melanoma) of 160 nM and a GI50 (SK-MEL-28 melanoma) of 341 nM. It also gave a TGI (SK-MEL-28 melanoma) of over 100000 nM, a GI50 (PC-3 prostate) of under 14.6 nM and a TGI (PC-3 prostate) of over 100000 nM. It also gave a GI50 (COLO 205 colon) of 91 nM, a TGI (COLO 205 colon) of over 100000 nM and a GI50 (NCI-H522 lung) of 21.8 nM. For the same molecule, the TGI (NCI-H522 lung) was 588 nM, the GI50 (MALME-3M melanoma) was 46.1 nM and the TGI (MALME-3M melanoma) was over 100000 nM. For the same molecule, the GI50 (SN12C renal) was 20.1 nM, the TGI (SN12C renal) was over 100000 nM and the GI50 (OVCAR-3 ovarian) was 31.9 nM. It also gave a TGI (OVCAR-3 ovarian) of 60400 nM, a GI50 (OVCAR-5 ovarian) of 73.6 nM and a TGI (OVCAR-5 ovarian) of over 100000 nM. It also gave a GI50 (UO-31 renal) of 27.9 nM, a TGI (UO-31 renal) of 2190 nM and a GI50 (DU-145 prostate) of 33.8 nM. It also gave a TGI (DU-145 prostate) of over 100000 nM, a GI50 (SNB-19 CNS) of 21.7 nM and a TGI (SNB-19 CNS) of over 100000 nM. The GI50 (UACC-62 melanoma) was 39.5 nM, the TGI (UACC-62 melanoma) was 927 nM and the GI50 (HCT-15 colon) was 24 nM. For the same molecule, the TGI (HCT-15 colon) was over 100000 nM, the GI50 (SF-295 CNS) was 18.2 nM and the TGI (SF-295 CNS) was over 100000 nM. For the same molecule, the GI50 (A549 NSCLC) was 34.9 nM, the TGI (A549 NSCLC) was over 100000 nM and the GI50 (CCRF-CEM leukemia) was 31.4 nM. It also gave a TGI (CCRF-CEM leukemia) of over 100000 nM, a GI50 (OVCAR-8 ovarian) of under 14.2 nM and a TGI (OVCAR-8 ovarian) of over 100000 nM. The GI50 (LOX IMVI melanoma) was 38.1 nM, the TGI (LOX IMVI melanoma) was 15100 nM and the GI50 (K-562 leukemia) was 22.4 nM. For the same molecule, the TGI (K-562 leukemia) was over 100000 nM, the GI50 (TK-10 renal) was 16.5 nM and the TGI (TK-10 renal) was over 100000 nM. For the same molecule, the GI50 (SK-MEL-2 melanoma) was 23.2 nM, the TGI (SK-MEL-2 melanoma) was 80.4 nM and the GI50 (A498 renal) was 40.9 nM. For the same molecule, the TGI (A498 renal) was 97500 nM, the GI50 (HT29 colon) was 71.7 nM and the TGI (HT29 colon) was over 100000 nM. It also gave a GI50 (MOLT-4 leukemia) of 81.8 nM, a TGI (MOLT-4 leukemia) of over 100000 nM and a GI50 (NCI/ADR-RES ovarian) of under 10 nM. For the same molecule, the TGI (NCI/ADR-RES ovarian) was over 100000 nM, the GI50 (SW-620 colon) was 25.1 nM and the TGI (SW-620 colon) was over 100000 nM. It also gave a GI50 (NCI-H226 lung) of 51.2 nM, a TGI (NCI-H226 lung) of 11700 nM and a GI50 (HCT-116 colon) of under 10 nM. It also gave a TGI (HCT-116 colon) of over 100000 nM, a GI50 (SR leukemia) of 40 nM and a TGI (SR leukemia) of over 100000 nM. It also gave a GI50 (MCF7 breast) of under 10 nM, a TGI (MCF7 breast) of over 100000 nM and a GI50 (MDA-MB-435) of 21.4 nM. For the same molecule, the TGI (MDA-MB-435) was over 100000 nM, the GI50 (SF-539 CNS) was 46.5 nM and the TGI (SF-539 CNS) was over 64100 nM. It also gave a GI50 (EKVX NSCLC) of 48.2 nM, a TGI (EKVX NSCLC) of over 100000 nM and a GI50 (RXF 393 renal) of 48.5 nM. The GI50 (HL-60(TB) leukemia) was 23.9 nM, the GI50 (HCC-2998 colon) was 49.6 nM and the TGI (HCC-2998 colon) was over 100000 nM. It also gave a GI50 (M14 melanoma) of 32.6 nM, a TGI (M14 melanoma) of 2170 nM and a GI50 (KM12 colon) of 41.5 nM. The TGI (KM12 colon) was over 100000 nM, the GI50 (SNB-75 CNS) was 17.2 nM and the TGI (SNB-75 CNS) was over 100000 nM. For the same molecule, the GI50 (SF-268 CNS) was 48.7 nM, the TGI (SF-268 CNS) was over 100000 nM and the GI50 (786-0 renal) was 39.4 nM. For the same molecule, the TGI (786-0 renal) was 5210 nM, the GI50 (MDA-MB-231 breast) was 56.6 nM and the TGI (MDA-MB-231 breast) was over 100000 nM. It also gave a GI50 (ACHN renal) of 25.6 nM, a TGI (ACHN renal) of over 100000 nM and a GI50 (HOP-62 NSCLC) of 31.9 nM. It also gave a TGI (HOP-62 NSCLC) of over 34600 nM, a GI50 (HS 578T breast) of 43.8 nM and a TGI (HS 578T breast) of over 100000 nM. It also gave a GI50 (T-47D breast) of 28 nM, a TGI (T-47D breast) of over 100000 nM and a GI50 (IGROV1 ovarian) of 58.4 nM. For the same molecule, the TGI (IGROV1 ovarian) was over 100000 nM, the GI50 (U251 CNS) was under 10 nM and the TGI (U251 CNS) was over 100000 nM. For the same molecule, the GI50 (NCI-H460 lung) was under 10 nM, the TGI (NCI-H460 lung) was 111 nM and the GI50 (NCI-H23 lung) was 24.5 nM. It also gave a TGI (NCI-H23 lung) of over 100000 nM.
